Source: patent US20210179680A1, “POLYPEPTIDE, DERIVATIVES THEREOF, AND APPLICATION THEREOF IN PREPARATION OF DRUGS HAVING RESISTANCE TO PULMONARY FIBROSIS” (priority 2016, published 2021)
Bridge positions count the residues as written; N and C are the ends. Square brackets hold non-standard residues; d marks the D form. Peptide text beside a SMILES is read from it. S5 = C=CCCC[C@](C)(N)C(=O)O

Key:
[1] = α-helix ratio of polypeptides by circular dichroism; format: physicochemical; conditions: PBS solution, 1 mg/mL
Procedure: The α-helix ratio of the polypeptide was measured by a circular dichromatograph (purchased from Jasco, Japan). The polypeptides MR2, S1, S2, S3, S4, S5, S6, S7, S8, S9, S10 and S11 prepared in Example 1 were dissolved in PBS solution, and the working concentration of the circular dichromatograph was adjusted to 1 mg/mL. […] Among them, the α-helix ratio refers to the percentage of the number of peptide segments of the polypeptide that maintains the alpha helix of the secondary structure in the peptide segments of the total polypeptide.

[2] = tested on: mice with bleomycin-induced pulmonary fibrosis; assay: Hydroxyproline content in lung of mice with pulmonary fibrosis; format: in vivo, C57BL/6 mice; conditions: Table 3 groups, 2 mg/kg i.p.; left lung lobes; chloramine-T method
Procedure: (§1) Male C57BL/6 mice were fasted overnight, then anesthetized with 45 mg/kg sodium pentobarbital by injection intraperitoneally (i.p.), and intratracheally injected with bleomycin at a dose of 3 U/kg. The specific operation steps are as follows: cut the neck skin of the mouse with as little trauma as possible, expose the trachea with the assistance of elbow ophthalmic forceps, puncture the trachea and inject about 50 μL of bleomycin into the trachea with a microsyringe, rotate the mouse quickly and stand it upright for 5 minutes in order to make bleomycin evenly enter the left and right lobe, thereby constructing an animal model. The whole operation was performed at a surgical table at about […]. Mice in the sham operation group were intratracheally injected with an equal amount of physiological saline for injection.
Hydroxyproline accounts for 13.4% (w/w) of collagen, and extremely small amount of elastin, while it is absent in other proteins. […] Pulmonary fibrosis models were prepared according to the method described in Example 2 and administered in groups according to Table 3. The content of hydroxyproline in the lobes of left lung of the animals was measured 28 days later, and the condition of pulmonary fibrosis was evaluated.
The specific method is as follows: the mice in the animal model prepared in Example 2 was feed in a SPF animal room and treated with polypeptide according to the dosing schedule of Table 3, and all left lobes of lung of the experimental animal was taken on the 21st day after the animal model was constructed and the wet weight was recorded. Then 10% (w/w) tissue homogenate was prepared by ultrasonic homogenization using physiological saline. About 150 μL of homogenate supernatant was taken, and 500 μL of alkali hydrolysate was added (provided by Hydroxyproline alkaline hydrolysis kit of Nanjing Jiancheng Bioengineering Technology Co., Ltd.). After vortex mixing, the mixture was treated with alkaline hydrolysis for 40 min under conditions of 120° C., 0.1 Kpa. After adjusting the pH value, the volume was held constant, and the supernatant was taken after performing activated carbon treatment. The hydroxyproline was determined according to the chloramine-T method (the method of the present example refers to the instruction provided with kit, which was purchased from Nanjing Jiancheng Bioengineering Technology Co., Ltd.). […] In FIG. 10, “##” represents that P value is less than 0.01 when comparing the content of hydroxyproline in the administration group with that in the sham operation group; and “*” represents that P value is less than 0.05 and“**” represents that P value is less than 0.01 when comparing the content of hydroxyproline in the administration group with that in bleomycin group.
Hydroxyproline accounts for 13.4% (w/w) of collagen, and accounts for extremely small amount of elastin, while it is absent in other proteins. […] Pulmonary fibrosis models were prepared according to the method described in Example 2 and administered in groups according to Table 3. The content of hydroxyproline in the all lobes of left lung of the animals was measured 28 days later, and the condition of pulmonary fibrosis was evaluated.
The specific method is as follows: the mice in the animal model prepared in Example 2 was feed in an SPF animal room and treated with polypeptide according to the dosing schedule of Table 3, and all the left lobes of lung of the experimental animal was taken on the 21st day after the animal model was constructed and the wet weight was recorded. Then 10% (w/w) tissue homogenate was prepared by ultrasonic homogenization using physiological saline. About 150 μL of homogenate supernatant was taken, and 500 μL of alkali hydrolysate was added (provided by Hydroxyproline alkaline hydrolysis kit of Nanjing Jiancheng Bioengineering Technology Co., Ltd.). After vortex mixing, the mixture was treated with alkaline hydrolysis for 40 min under conditions of 120° C., 0.1 Kpa. […]

[3] = tested on: mice with bleomycin-induced pulmonary fibrosis; assay: Pulmonary function (Flexivent) in mice with pulmonary fibrosis; format: in vivo, C57BL/6 mice; conditions: Table 3 groups, 2 mg/kg i.p.; for Dynamic compliance (mL/cmH2O) / Dynamic elasticity (cmH2O./mL) / Dynamic resistance (cmH2O · s/Ml) / Inspiratory capacity: 28th day after model construction; for pulmonary function of mice with pulmonary fibrosis (in words): FIG. 11
Procedure: as §1
(§2) Pulmonary function is a gold indicator for clinical detection of pulmonary fibrosis in patients. The decline of lung function is generally accompanied by an aggravation of fibrosis, while the improvement of lung function generally represents the recovery of lung tissue structure. Pulmonary fibrosis models were prepared according to the method described in Example 2 and administered in groups according to Table 3. On the 28th day after the construction of the animal model, the mice were anesthetized with sodium pentobarbital (45 mg/kg, i.p.). Lung function was tested by the Flexivent Small-animal respiratory mechanics and the testing methods were TLC and SnapShots (Testing method refers to Lv X, Wang X, Li K, et al. Rupatadine Protects against Pulmonary Fibrosis by Attenuating PAF-Mediated Senescence in Rodents [J]. PloS one, 2013, 8(7): e68631).
as §2, with “lung function also generally represents” for “lung function generally represents”, “to Table 9. 28 days later, the mice” for “to Table 3. On the 28th day after the construction of the animal model, the mice”, “Senescence in Rodents[J]. PloS one,” for “Senescence in Rodents [J]. PloS one,”

Row | SMILES | α-helicity (%) [1] [%] | α-helix ratio compared with polypeptide MR2 (in words) [1] | hydroxyproline content (μg/mg protein) [2] [μg/mg protein] | Dynamic compliance (mL/cmH2O) [3] [mL/cmH2O] | Dynamic elasticity (cmH2O./mL) [3] [cmH2O./mL] | Dynamic resistance (cmH2O · s/Ml) [3] [cmH2O · s/Ml] | Inspiratory capacity [3] [mL] | pulmonary function of mice with pulmonary fibrosis (in words) [3]
1 | CSCC[C@H](NC(=O)[C@H](CC(C)C)NC(=O)[C@@H](N)Cc1c[nH]cn1)C(=O)N[C@@H](C)C(=O)N[C@@H](CS)C(=O)N[C@@H](Cc1ccccc1)C(=O)N[C@H](C(=O)N[C@@]1(C)CCCC=CCCC[C@@](C)(C(=O)N[C@@H](CCCCN)C(=O)N[C@@H](CCCCN)C(=O)N[C@@H](CCCNC(=N)N)C(=O)O)NC(=O)[C@H](CCCCN)NC(=O)[C@H](CCCCN)NC(=O)[C@H](C)NC1=O)[C@@H](C)O [S8, His-Leu-Met-Ala-Cys-Phe-Thr-S5-Ala-Lys-Lys-S5-Lys-Lys-Arg] (H-HLMACFT[S5]AKK[S5]KKR-OH; staple 8-12; N-terminus and C-terminus assumed) | 29.1 | significantly higher than that of polypeptide MR2 | 0.825 | 0.2583 | 66.5 | 1.35 | 0.626 | improved
2 | CSCC[C@H](NC(=O)[C@H](CC(C)C)NC(=O)[C@@H](N)Cc1c[nH]cn1)C(=O)N[C@@H](C)C(=O)N[C@@H](CS)C(=O)N[C@@H](Cc1ccccc1)C(=O)N[C@H](C(=O)N[C@@H](CS)C(=O)N[C@@]1(C)CCCC=CCCC[C@@](C)(C(=O)N[C@@H](CCCCN)C(=O)N[C@@H](CCCNC(=N)N)C(=O)O)NC(=O)[C@H](CC(C)C)NC(=O)[C@H](CCCCN)NC(=O)[C@H](CCCCN)NC1=O)[C@@H](C)O [S9, His-Leu-Met-Ala-Cys-Phe-Thr-Cys-S5-Lys-Lys-Leu-S5-Lys-Arg] (H-HLMACFTC[S5]KKL[S5]KR-OH; staple 9-13; N-terminus and C-terminus assumed) | 44.0 | significantly higher than that of polypeptide MR2 | 0.7212 | 0.27 | 44.5 | 1.033 | 0.686 | improved
3 | CSCC[C@H](NC(=O)[C@H](CC(C)C)NC(=O)[C@@H](N)Cc1c[nH]cn1)C(=O)N[C@@H](C)C(=O)N[C@@H](CS)C(=O)N[C@@H](Cc1ccccc1)C(=O)N[C@H](C(=O)N[C@@H](CS)C(=O)N[C@@H](C)C(=O)N[C@@]1(C)CCCC=CCCC[C@@](C)(C(=O)N[C@@H](CCCNC(=N)N)C(=O)O)NC(=O)[C@H](CCCCN)NC(=O)[C@H](CC(C)C)NC(=O)[C@H](CCCCN)NC1=O)[C@@H](C)O [S10, His-Leu-Met-Ala-Cys-Phe-Thr-Cys-Ala-S5-Lys-Leu-Lys-S5-Arg] (H-HLMACFTCA[S5]KLK[S5]R-OH; staple 10-14; N-terminus and C-terminus assumed) | 31.5 | significantly higher than that of polypeptide MR2 | 0.8163 | 0.2333 | 49.5 | 1.367 | 0.562 | improved
4 | CSCC[C@H](NC(=O)[C@H](CC(C)C)NC(=O)[C@@H](N)Cc1c[nH]cn1)C(=O)N[C@@H](C)C(=O)N[C@@H](CS)C(=O)N[C@@H](Cc1ccccc1)C(=O)N[C@H](C(=O)N[C@@H](CS)C(=O)N[C@@H](C)C(=O)N[C@@H](CCCCN)C(=O)N[C@@]1(C)CCCC=CCCC[C@@](C)(C(=O)O)NC(=O)[C@H](CCCCN)NC(=O)[C@H](CCCCN)NC(=O)[C@H](CC(C)C)NC1=O)[C@@H](C)O [S11, His-Leu-Met-Ala-Cys-Phe-Thr-Cys-Ala-Lys-S5-Leu-Lys-Lys-S5] (H-HLMACFTCAK[S5]LKK[S5]-OH; staple 11-15; N-terminus and C-terminus assumed) | 37.8 | significantly higher than that of polypeptide MR2 | 0.7725 | 0.235 | 53 | 1.267 | 0.658 | improved
